Paper PMC11508334, “In Vitro Evaluation of New 5-Nitroindazolin-3-one Derivatives as Promising Agents against Trypanosoma cruzi” (International Journal of Molecular Sciences, 2024)

Key:
[1] = Cyclic voltammetry, reduction of nitro group; format: physicochemical; conditions: for −EpaIII: anodic peak potential of couple IIIc/IIIa; for −EpaIII / −EpcIII / −E1/2: given with inverted sign, vs. Ag/AgCl electrode in DMSO; for −EpcIII: cathodic peak potential of couple IIIc/IIIa; for Ipa/Ipc: current ratio RNO2/RNO2•−, couple IIIc/IIIa, DMSO; for −E1/2: half-wave potential of couple IIIc/IIIa
Procedure: Cyclic Voltammetry (CV) was carried out using a Metrohm Autolab instrument model PGSTAT204, using dimethyl sulfoxide (DMSO) as the solvent (1 mM solutions), tetrabutylammonium perchlorate (0.1 M TBAP) as the supporting electrolyte, a hanging drop mercury electrode (HDME) as the working electrode, Ag/AgCl (3M KCl) as the reference electrode, and a graphite rod as the counter electrode. All measurements were performed after bubbling with nitrogen (N2) for 10 min.
Using Nicholson’s procedure, the Ipa/Ipc values (RNO2/RNO2^•−) were measured from each cyclic voltammogram with a scan rate between 0.1 and 2.5 V/s.

RAW 264.7 cells [2] = experiment: Cytotoxicity MTT assay on RAW 264.7 cells; format: cell-based; conditions: Mus musculus, RAW264.7, in vitro cytotoxicity, murine RAW 264.7 macrophages
Procedure: The compounds under study, dissolved in dimethylsulfoxide (DMSO), were added to the culture media at 10–200 μM. RAW 264.7 cells were cultured in 96-well plates (5 × 10^4 cells per well), and 100 μL of 0.5 mg/mL MTT was added to each well. The DMSO final concentration was less than 0.1% v/v. After incubation for 4 h at 37 °C, the generated water-insoluble formazan dye was dissolved by adding 100 μL of 10% w/v sodium dodecyl sulfate (SDS) in 0.01 M HCl. The plates were further incubated overnight at 37 °C; […] 0.5% of Triton X-100 was added as a positive control. The plates were further incubated overnight at 37 °C, and the optical density of the wells was determined using a microplate reader (Asys Expert Plus©, Asys Hitachi, Vienna, Austria) at 570 nm. Under these conditions, the optical density is directly proportional to the viable cell number in each well. All experiments were performed at least thrice and data were reported as means and their standard deviations from triplicate cultures. Results are reported as IC50 regarding the control (uninfected cells in culture medium)

[3] = tested on: T. cruzi epimastigote stage (Dm28c strain); experiment: Epimastigotes viability study (MTT); format: cell-based, Trypanosoma cruzi; conditions: for SI Epimastigote: Selectivity Index IC50 macrophages RAW 264.7/IC50 epimastigotes Dm28c; for IC50: Trypanosoma cruzi, T. cruzi Dm28c epimastigotes, 24 h, MTT
Procedure: The trypanocidal activity was evaluated against the T. cruzi epimastigote stage (Dm28c strain). It was measured through the MTT assay using 0.22 mg/mL phenazine methosulfate (as an electron carrier). T. cruzi epimastigote from the author's collection (Programa de Farmacología Molecular y Clínica, Facultad de Medicina, Universidad de Chile, Santiago, Chile) were grown at 28 °C in liver infusion tryptase (LIT) medium, as reported earlier, but replacing blood with 4 μM hemin. […] fetal bovine serum (FBS) was added to a final concentration of 10% v/v. In this colorimetric assay for testing the trypanocidal activity, the compounds were dissolved in DMSO. They were added to 3 × 10^6 parasites/mL at 100 μM final concentrations in RPMI 1640 culture medium without phenol red for 24 h at 28 °C. The final concentration of DMSO was less than 0.1% v/v. […] The MTT assay, which was described previously, determined the viability of the epimastigotes.

Dm28c trypomastigotes = experiment: Trypomastigote viability study (MTT); format: cell-based, Trypanosoma cruzi; conditions: for IC50: Trypanosoma cruzi, T. cruzi Dm28c trypomastigotes, 24 h, MTT; for SI Trypomastigote: Selectivity Index IC50 macrophages RAW 264.7/IC50 trypomastigotes Dm28c
Procedure: Vero cells (ATCC CCL-81) were infected with Dm28c trypomastigotes at a 1:3 (cell: parasite) ratio. T. cruzi trypomastigotes were initially obtained from primary cultures of peritoneal macrophage from chagasic mice. […] Vero cell cultures were then infected with trypomastigotes and incubated at 37 °C in humidified air and 5% CO2 for 5–7 days. After that time, the culture medium was collected and centrifuged at 500× g for 5 min. The trypomastigote-containing pellet was re-suspended in RPMI 1640 supplemented with inactivated FBS and penicillin–streptomycin at a final 1 × 10^7 parasites/mL density. Trypomastigote viability assays were performed using the MTT reduction method as described previously. Then, 1 × 10^7 parasites/mL was incubated in RPMI 1640 with inactivated FBS at 37 °C for 24 h with or without the studied compounds.

CL-B5 epimastigotes = tested on: CL-B5 epimastigotes; set-up: method as in PMID 23124218; conditions: cited from earlier work
RAW 264.7 cells [4] = experiment: Plasma membrane permeability (SYTOX Green) of RAW 264.7 cells; format: cell-based, murine
[5] = tested on: trypomastigotes of T. cruzi; experiment: Plasmatic membrane permeability assay (SYTOX Green) on trypomastigotes; format: cell-based, Trypanosoma cruzi; conditions: compound at IC50, 1 h
Procedure: Late growth-phase trypomastigotes of T. cruzi (3 × 10^6/well) were washed and incubated in the dark with 1 μM SYTOX Green probe (Molecular Probes) in HANKS′ balanced salts solution (HBSS; Sigma-Aldrich) supplemented with 10 mM D-glucose (HBSS + Glu). The test compound was added at IC50, and fluorescence was measured after 1 h of treatment. The maximum permeabilization was obtained with 0.5% Triton X-100. Fluorescence intensity was determined using Varioskan™ LUX multimode microplate reader (ThermoFisher Scientific, Waltham, MA, USA), with excitation and emission wavelengths of 485 and 520 nm, respectively. The following internal controls were used in the evaluation: (i) the background fluorescence of the compound at the respective wavelengths and (ii) the possible interference of DMSO. Samples were tested in triplicate.

[6] = tested on: Dm28c trypomastigote of T. cruzi; experiment: Mitochondrial membrane potential (TMRM incorporation); format: cell-based, Trypanosoma cruzi; conditions: trypomastigotes, compound at IC50, 3 h; compared to negative control
Procedure: Mitochondrial membrane potential (ψm) was determined by the incorporation of the fluorescent probe tetramethylrhodamine methyl ester (TMRM). […] Then, carbonylcyanide-m-chlorophenylhydrazone (CCCP, 10 µM) was added as a control and incubated at 37 °C in humidified air and 5% CO2 for 3 h. Parasites were washed with phosphate-buffered saline (pH 7.4), and suspensions were incubated with TMRM (50 nM) for 15 min. Fluorescence measurements determined the incorporation of the probe at an excitation wavelength of 550 nm and an emission of 590 nm. All the assays were performed in darkness.

[7] = tested on: trypomastigote form of T. cruzi; experiment: Analysis of ATP levels (CellTiter-Glo); format: cell-based, Trypanosoma cruzi; conditions: trypomastigotes; relative to negative control
Procedure: The CellTiter-Glo® Luminescent Cell Viability Assay (Promega, Fitchburg, WI, USA) was used to detect variations in ATP levels. After incubation, treated parasites were centrifuged (6000 rpm, 10 min, 4 °C) and treated according to the manufacturer’s instructions. Luminescence was determined using the Varioskan™ LUX multi-mode microplate reader (ThermoFisher Scientific). Results were expressed as a percentage relative to the negative control without treatment. Sodium azide (20 mM NaN3 for 3 h) was added as a positive control and benznidazole as a reference treatment. (1) %relative control=luminescence sample/luminescence control∗100

SMILES	−EpaIII [1] [V]	−EpcIII [1] [V]	Ipa/Ipc [1]	−E1/2 [1] [V]	IC50 (RAW 264.7 cells [2]) [µM]	SI Epimastigote [3]	IC50 [3] [µM]	IC50 (Dm28c trypomastigotes) [µM]	trypanocidal activity against CL-B5 epimastigotes (CL-B5 epimastigotes)	SI Trypomastigote (Dm28c trypomastigotes)	effect on plasma membrane permeability (SYTOX Green incorporation) (RAW 264.7 cells [4])	alteration of plasma membrane permeability (SYTOX Green incorporation) [5]	effect on mitochondrial membrane potential (ψm) [6]	ATP levels [7]	melting point [°C]
Cn1c2ccc([N+](=O)[O-])cc2c(=O)n1Cc1ccccc1 [Compound 1]	1.02	1.12	0.94	1.07	37.8 ± 1.2	3.7	10.1 ± 0.6	> 100	effective against CL-B5 epimastigotes						
CCCn1c2ccc([N+](=O)[O-])cc2c(=O)n1Cc1ccccc1 [Compound 2a]									effective against CL-B5 epimastigotes						
CC(C)n1c2ccc([N+](=O)[O-])cc2c(=O)n1Cc1ccccc1 [Compound 2b]									effective against CL-B5 epimastigotes						
Cn1[nH]c2ccc([N+](=O)[O-])cc2c1=O [Compound 3a]	0.95	1.13	0.99	1.04	26.1 ± 0.8	2.9	8.9 ± 1.3	18.5 ± 0.9		1.4	significantly affect permeability				
Cn1c(=O)c2cc([N+](=O)[O-])ccc2n1C [Compound 3b]	1.03	1.13	1.00	1.08	> 200		28.6 ± 2.1	41.8 ± 1.1		>4.8		alter plasma membrane permeability	statistically significant impact	significantly reduced ATP levels	
Cn1c2ccc([N+](=O)[O-])cc2c(=O)n1Cc1ccc(Cl)cc1 [Compound 11, 2-(4-Chlorobenzyl)-1-methyl-5-nitro-1,2-dihydro-3H-indazol-3-one]	0.99	1.21	0.89	1.10	68.8 ± 1.2	1.0	70.1 ± 2.1	67.8 ± 1.7		1.0	significantly affect permeability				128 to 130
Cn1c2ccc([N+](=O)[O-])cc2c(=O)n1Cc1cccc(Br)c1 [Compound 13, 2-(3-Bromobenzyl)-1-methyl-5-nitro-1,2-dihydro-3H-indazol-3-one]	0.99	1.13	0.97	1.06	> 200	>2.5	79.8 ± 2.3	43.6 ± 1.1		>4.6		alter plasma membrane permeability	statistically significant impact	significantly reduced ATP levels	149 to 151
COc1ccccc1Cn1c(=O)c2cc([N+](=O)[O-])ccc2n1C [Compound 15, 2-(2-Methoxybenzyl)-1-methyl-5-nitro-1,2-dihydro-3H-indazol-3-one]	1.04	1.16	0.96	1.10	36.3 ± 1.1		> 100	> 100			significantly affect permeability				210 to 212
O=c1[nH]n(-c2ccccc2)c2ccc([N+](=O)[O-])cc12 [Compound 22]	1.26		0.59	1.33	> 200	>32.3	6.2 ± 0.9	15.3 ± 1.2		>13.1		alter plasma membrane permeability	statistically significant impact	significantly reduced ATP levels	
